Calls of active or inactive are those of the source. The calls are words filed in the database; no cut-off is given here.
What was measured:
Quadruplex DNA [1] = assay: Stabilization of G-quadruplex 5-FAM-telomeric24 DNA-TAMRA-3 (unknown origin) assessed as change in melting temperature incubated for 2 hrs by FRET assay; type: nucleic-acid assay
[2] = Cytotoxicity against human MCF-10A cells incubated for 24 hrs by CCK-8 reagent based spectrophotometric analysis; type: toxicity, cell-based
MCF7 = assay: Cytotoxicity against human MCF7 cells incubated for 24 hrs by CCK-8 reagent based spectrophotometric analysis; type: functional, cell-based; conditions: MCF7, 24 h
Quadruplex DNA [3] = assay: Stabilization of G-quadruplex telomeric DNA in human MDA-MB-231 cells assessed as increase in BG4-positive cell nuclei at 3 uM incubated for 24 hrs by DAPI staining based immunofluorescence microscopic analysis
Quadruplex DNA [4] = assay: Stabilization of G-quadruplex telomeric DNA in human MDA-MB-231 cells assessed as increase in colocalization of TRF2 and S9.6 formation foci at 3 uM incubated for 24 hrs by DAPI staining based immunofluorescence microscopic analysis; type: cell-based
Quadruplex DNA [5] = assay: Binding affinity to G-quadruplex telomeric DNA (unknown origin) assessed as melting temperature by CD spectrophotometric analysis; type: nucleic-acid assay
Quadruplex DNA [6] = assay: Stabilization of G-quadruplex telomeric DNA in human MDA-MB-231 cells assessed as R-loop formation in mitochondria by measuring increase in S9.6 intensity at 3 uM incubated for 24 hrs by DAPI staining based immunofluorescence microscopic analysis
MDA-MB-231 [7] = assay: Induction of DNA damage in human MDA-MB-231 cells assessed as increase in gamma-H2AX level in nucleus at 3 uM incubated for 24 hrs by DAPI staining based immunofluorescence analysis; type: functional, cell-based
MDA-MB-231 [8] = assay: Induction of DNA damage in human MDA-MB-231 cells assessed as upregulation of ATM phosphorylation incubated for 24 hrs by Western blot analysis; type: functional, cell-based
MDA-MB-231 [9] = assay: Induction of DNA damage in human MDA-MB-231 cells assessed as upregulation of CHK2 phosphorylation at 4 uM by Western blot analysis; type: functional, cell-based; conditions: TDE = time-dependent effect
MDA-MB-231 [10] = assay: Induction of cell cycle arrest in human MDA-MB-231 cells assessed as accumulation of cells at G0/G1 phase at 1 uM incubated for 24 hrs by RNase/PI staining based flow cytometry (reference value: 82.3 %); type: functional
MDA-MB-231 [11] = assay: Induction of cell cycle arrest in human MDA-MB-231 cells assessed as accumulation of cells at S phase at 1 uM incubated for 24 hrs by RNase/PI staining based flow cytometry (reference value: 6.3 %); type: functional
MDA-MB-231 [12] = assay: Induction of cell cycle arrest in human MDA-MB-231 cells assessed as accumulation of cells at S phase at 4 uM incubated for 24 hrs by RNase/PI staining based flow cytometry (reference value: 6.3 %); type: functional
MDA-MB-231 [13] = assay: Induction of cell cycle arrest in human MDA-MB-231 cells assessed as accumulation of cells at G2/M phase at 2 uM incubated for 24 hrs by RNase/PI staining based flow cytometry (reference value: 11.3 %); type: functional
MDA-MB-231 [14] = assay: Induction of apoptosis in human MDA-MB-231 cells assessed as increase in Annexin V-positive cells at 1 to 4 uM incubated for 24 hrs by Annexin V-633/PI staining based flow cytometry; type: functional, cell-based; conditions: dose 1-4 µM
MDA-MB-231 [15] = assay: Induction of apoptosis in human MDA-MB-231 cells assessed as upregulation of cleaved PARP expression at 1 to 4 uM incubated for 24 hrs by Western blot analysis; type: functional, cell-based; conditions: dose 1-4 µM
MDA-MB-231 [16] = assay: Inhibition of cell migration in human MDA-MB-231 cells incubated for 48 hrs by wound scrape assay; type: functional, cell-based
MDA-MB-231 [17] = assay: Induction of immunogenic cell death in human MDA-MB-231 cells assessed as increase in CRT expression incubated for 24 hrs by immunofluorescence confocal laser scanning microscopic analysis; type: functional, cell-based
DNA = assay: Binding affinity to DNA (unknown origin) assessed as dissociation constant by Benesi-Hildebrand equation based analysis; type: nucleic-acid assay
Quadruplex DNA [18] = assay: Binding affinity to G-quadruplex telomeric DNA (unknown origin) assessed as thermal shift at 10 uM by UV-Visible spectrophotometric analysis; type: nucleic-acid assay
Quadruplex DNA [19] = assay: Binding affinity to c-MYC G-quadruplex telomeric DNA (unknown origin) assessed as […] in melting temperature by FRET assay; type: nucleic-acid assay
BMDC = assay: Induction of immunogenic cell death in BALB/c mouse BMDC cells co-cultured with mouse 4T1 cells assessed as increase in CD11c+ CD80+ CD86 cells maturation at 2.5 uM incubated for 24 hrs by flow cytometry (reference value: 69.4 %); type: functional
4T1 [20] = assay: Antitumor activity against mouse 4T1 cells implanted in BALB/c mouse assessed as increase in survival time at 10 mg/kg,ip every other day for 14 days; type: functional, organism-based; conditions: time 14.0 day
[21] = Toxicity in BALB/c mouse implanted with mouse 4T1 cells assessed as histopathological change in heart at 10 mg/kg,ip every other day for 14 days by hematoxylin and eosin staining analysis; type: organism-based; conditions: in vivo, 336 h, time 14 day
[22] = Toxicity in BALB/c mouse implanted with mouse 4T1 cells assessed as histopathological change in lung at 10 mg/kg,ip every other day for 14 days by hematoxylin and eosin staining analysis; type: organism-based; conditions: in vivo, 336 h, time 14 day
[23] = Toxicity in BALB/c mouse implanted with mouse 4T1 cells assessed as histopathological change in kidney at 10 mg/kg,ip every other day for 14 days by hematoxylin and eosin staining analysis; type: organism-based; conditions: in vivo, 336 h, time 14 day
4T1 [24] = assay: Antitumor activity against mouse 4T1 cells implanted in BALB/c mouse assessed as damage in tumor tissue at 10 mg/kg,ip every other day for 14 days by hematoxylin and eosin staining analysis; type: functional, organism-based; conditions: time 14.0 day
4T1 [25] = assay: Antitumor activity against mouse 4T1 cells implanted in BALB/c mouse assessed as upregulation of gamma-H2AX expression in tumor at 10 mg/kg,ip every other day for 14 days by immunohistochemistry; type: functional, organism-based; conditions: time 14.0 day
4T1 [26] = assay: Antitumor immunity against mouse 4T1 cells implanted in BALB/c mouse assessed as increase in proportion of CD8+ T cells in spleen at 10 mg/kg,ip every other day for 14 days by flow cytometry; type: functional, organism-based; conditions: time 14.0 day
4T1 [27] = assay: Antitumor immunity against mouse 4T1 cells implanted in BALB/c mouse assessed as increase in proportion of CD4+ T cells in tumor at 10 mg/kg,ip every other day for 14 days by flow cytometry; type: functional, organism-based; conditions: time 14.0 day
4T1 [28] = assay: Antitumor immunity against mouse 4T1 cells implanted in BALB/c mouse assessed as increase in proportion of CD8+ T cells in tumor at 10 mg/kg,ip every other day for 14 days by flow cytometry; type: functional, organism-based; conditions: time 14.0 day
4T1 [29] = assay: Antitumor immunity against mouse 4T1 cells implanted in BALB/c mouse assessed as increase in proportion of CD4+ T cells in tumor at 10 mg/kg,ip every other day for 14 days by immunohistochemistry staining based analysis; type: functional, organism-based; conditions: time 14.0 day
4T1 [30] = assay: Antitumor immunity against mouse 4T1 cells implanted in BALB/c mouse assessed as increase in proportion of CD8+ T cells in tumor at 10 mg/kg,ip every other day for 14 days by immunohistochemistry staining based analysis; type: functional, organism-based; conditions: time 14.0 day
Quadruplex DNA [31] = assay: Stabilization of G-quadruplex telomeric24 DNA (unknown origin) at 10 uM incubated for 40 mins by replication based ethidium bromide staining based gel electrophoresis; type: nucleic-acid assay
MDA-MB-231 [32] = assay: Induction of DNA damage in human MDA-MB-231 cells assessed as increase in micronuclei frequency in aberrant cell at 4 uM incubated for 24 hrs by DAPI staining based microscopic analysis; type: functional

With `CN(C)CCN(C)c1ccc(-c2nc3ccc(C(F)(F)F)cc3nc2-c2ccc(N(C)CCN(C)C)cc2)cc1` the ΔTm (Quadruplex DNA [1]) was 6.1 °C, the IC50 at 24 h [2] was 5.8 µM and the IC50 (MCF7) was 3.6 µM. For the same molecule, the Activity (Quadruplex DNA [3]) was “Active”, the Activity (Quadruplex DNA [4]) was “Active” and the Tm (Quadruplex DNA [5]) was 66 °C. The Activity (Quadruplex DNA [6]) was “Active”, the Activity (MDA-MB-231 [7]) was “Active” and the Activity (MDA-MB-231 [8]) was “Dose-Dependent Effect”. For the same molecule, the Activity (MDA-MB-231 [9]) was “Tde”, the Activity (MDA-MB-231 [10]) was 82.1% and the Activity (MDA-MB-231 [11]) was 6.4%. The Activity (MDA-MB-231 [12]) was 8.6%, the Activity (MDA-MB-231 [13]) was 11.5% and the Activity (MDA-MB-231 [14]) was “Active”. The Activity (MDA-MB-231 [15]) was “Active”, the inhibition (MDA-MB-231 [16]) was “Dose-Dependent Effect” and the Activity (MDA-MB-231 [17]) was “Dose-Dependent Effect”. The Kd (DNA) was 1.4 µM, the Activity (Quadruplex DNA [18]) was “Active” and the Activity (Quadruplex DNA [19]) was “Active”. The Activity (BMDC) was 70.1%, the Activity (4T1 [20]) was “Active” and the Activity [21] was “Non-Toxic”. For the same molecule, the Activity [22] was “Non-Toxic”, the Activity [23] was “Non-Toxic” and the Activity (4T1 [24]) was “Active”. The Activity (4T1 [25]) was “Active”, the Activity (4T1 [26]) was “Active” and the Activity (4T1 [27]) was “Active”. For the same molecule, the Activity (4T1 [28]) was “Active”, the Activity (4T1 [29]) was “Active” and the Activity (4T1 [30]) was “Active”. For the same molecule, the Activity (Quadruplex DNA [31]) was “Active” and the Activity (MDA-MB-231 [32]) was “Active”.

— ChEMBL document CHEMBL5550165, “Novel quinoxaline analogs as telomeric G-quadruplex ligands exert antitumor effects related to enhanced immunomodulation” (Eur J Med Chem, 2024)
